Assay results taken from PMC13385394, “Cryo-EM Structure of the TRPC1/5 Heteromer Enables Design of Antidepressant and Anxiolytic Drug with Reduced Side Effects” (Nature Communications, 2026).
Values joined by “and” are separate entries in the source; they are usually repeats but may differ in a detail not shown here. Equal entries are not always repeated.

Key:
hTRPC5 = biological target: T1, hTRPC5 (Homo sapiens, UniProt Q9UL62); experiment: Calcium flux assay (Calcium 5 kit, EA 100 nM), hTRPC5 in HEK293T cells; type: cell-based; details: calcium flux screening, 10 μM
T1 construct: Full-length, non-tagged hTRPC1 and hTRPC5 constructs are used for calcium flux assays; expressed in transfected cells; host or cells: HEK293T
T1 sequence (Q9UL62 1-973): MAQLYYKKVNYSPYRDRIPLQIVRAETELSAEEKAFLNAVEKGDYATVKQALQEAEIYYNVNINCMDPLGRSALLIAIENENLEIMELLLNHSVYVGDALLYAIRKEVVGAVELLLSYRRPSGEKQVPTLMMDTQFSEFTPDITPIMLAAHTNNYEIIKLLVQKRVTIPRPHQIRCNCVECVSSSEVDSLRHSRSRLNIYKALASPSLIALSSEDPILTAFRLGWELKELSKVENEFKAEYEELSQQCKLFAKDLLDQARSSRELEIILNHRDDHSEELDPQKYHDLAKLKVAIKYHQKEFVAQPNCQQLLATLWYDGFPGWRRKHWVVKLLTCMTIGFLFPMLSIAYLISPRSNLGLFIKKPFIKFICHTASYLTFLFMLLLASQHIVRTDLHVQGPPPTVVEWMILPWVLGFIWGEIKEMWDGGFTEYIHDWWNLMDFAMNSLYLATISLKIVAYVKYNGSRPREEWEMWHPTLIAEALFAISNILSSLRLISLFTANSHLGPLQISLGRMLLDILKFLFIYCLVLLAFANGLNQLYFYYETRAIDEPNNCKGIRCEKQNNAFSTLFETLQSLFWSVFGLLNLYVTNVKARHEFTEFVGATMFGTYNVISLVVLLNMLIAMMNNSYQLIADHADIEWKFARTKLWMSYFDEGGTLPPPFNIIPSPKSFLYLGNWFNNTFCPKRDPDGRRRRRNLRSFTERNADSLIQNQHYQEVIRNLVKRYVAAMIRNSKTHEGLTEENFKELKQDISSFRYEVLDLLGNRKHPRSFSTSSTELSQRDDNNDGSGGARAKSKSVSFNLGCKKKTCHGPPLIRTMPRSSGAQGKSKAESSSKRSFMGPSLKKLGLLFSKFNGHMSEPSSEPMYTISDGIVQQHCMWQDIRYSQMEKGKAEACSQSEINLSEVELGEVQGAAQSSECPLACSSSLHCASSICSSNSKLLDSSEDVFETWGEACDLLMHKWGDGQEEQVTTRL
Description: Five minutes before measurement, molecules are added to each well at a final concentration of 10 µM under light-sensitive conditions.

TRPC1/4 heteromer = biological target: T2, TRPC1/4 heteromer (Homo sapiens, UniProt P48995+Q9UBN4); experiment: Whole-cell patch-clamp, inhibition of TRPC1/4 heteromer; type: cell-based; details: read-out: IC50, TRPC1/4 heteromers
T2 construct: expressed in transfected cells
T2 sequence (P48995 whole entry): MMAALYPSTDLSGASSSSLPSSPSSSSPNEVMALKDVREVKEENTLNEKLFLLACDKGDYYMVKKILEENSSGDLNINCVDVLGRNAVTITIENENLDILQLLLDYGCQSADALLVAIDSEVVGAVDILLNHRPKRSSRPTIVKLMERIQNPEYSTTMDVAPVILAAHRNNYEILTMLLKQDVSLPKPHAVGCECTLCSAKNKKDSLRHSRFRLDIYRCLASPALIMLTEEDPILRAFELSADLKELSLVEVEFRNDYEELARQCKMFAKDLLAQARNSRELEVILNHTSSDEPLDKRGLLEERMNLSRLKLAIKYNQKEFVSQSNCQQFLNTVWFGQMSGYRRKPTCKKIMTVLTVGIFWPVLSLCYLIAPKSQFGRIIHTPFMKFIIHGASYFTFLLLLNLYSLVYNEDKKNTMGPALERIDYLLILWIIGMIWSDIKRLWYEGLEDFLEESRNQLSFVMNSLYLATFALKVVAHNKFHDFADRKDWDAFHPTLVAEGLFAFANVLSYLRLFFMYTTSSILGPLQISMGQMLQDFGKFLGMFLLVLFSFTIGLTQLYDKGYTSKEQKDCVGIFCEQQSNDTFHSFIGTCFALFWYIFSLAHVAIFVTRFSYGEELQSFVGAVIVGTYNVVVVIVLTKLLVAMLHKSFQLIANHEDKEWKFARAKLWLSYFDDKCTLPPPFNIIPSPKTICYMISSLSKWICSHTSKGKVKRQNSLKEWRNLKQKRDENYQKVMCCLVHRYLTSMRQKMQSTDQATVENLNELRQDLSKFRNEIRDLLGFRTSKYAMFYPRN
T2 sequence (Q9UBN4 whole entry): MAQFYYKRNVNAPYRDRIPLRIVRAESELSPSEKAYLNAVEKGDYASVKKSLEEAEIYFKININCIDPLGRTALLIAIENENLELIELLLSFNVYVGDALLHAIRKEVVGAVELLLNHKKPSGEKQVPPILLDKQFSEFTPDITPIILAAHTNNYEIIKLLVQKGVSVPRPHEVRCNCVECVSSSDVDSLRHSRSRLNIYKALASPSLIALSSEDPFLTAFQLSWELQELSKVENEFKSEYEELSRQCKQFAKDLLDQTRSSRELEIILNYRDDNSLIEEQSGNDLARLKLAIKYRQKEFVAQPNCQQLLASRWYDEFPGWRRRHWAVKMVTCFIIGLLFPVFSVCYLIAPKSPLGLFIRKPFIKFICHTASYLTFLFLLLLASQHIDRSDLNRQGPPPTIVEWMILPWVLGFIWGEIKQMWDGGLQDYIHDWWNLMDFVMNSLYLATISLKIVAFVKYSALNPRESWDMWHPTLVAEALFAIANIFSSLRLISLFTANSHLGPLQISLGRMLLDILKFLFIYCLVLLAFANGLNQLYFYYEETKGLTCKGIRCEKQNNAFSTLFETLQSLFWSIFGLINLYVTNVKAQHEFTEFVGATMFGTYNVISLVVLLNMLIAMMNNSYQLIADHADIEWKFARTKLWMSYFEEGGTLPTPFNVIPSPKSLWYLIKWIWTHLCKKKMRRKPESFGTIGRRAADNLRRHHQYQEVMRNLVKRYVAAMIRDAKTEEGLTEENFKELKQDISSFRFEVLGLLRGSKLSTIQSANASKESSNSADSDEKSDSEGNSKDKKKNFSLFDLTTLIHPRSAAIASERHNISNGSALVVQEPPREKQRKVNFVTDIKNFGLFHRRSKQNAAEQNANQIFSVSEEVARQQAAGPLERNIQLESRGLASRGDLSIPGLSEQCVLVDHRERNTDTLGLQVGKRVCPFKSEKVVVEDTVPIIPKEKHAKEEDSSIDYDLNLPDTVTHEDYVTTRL

TRPC3 homomer = biological target: T3, TRPC3 homomer (Homo sapiens, UniProt Q13507); experiment: Whole-cell patch-clamp, inhibition of TRPC3 homomer; type: cell-based
T3 construct: expressed in transfected cells
T3 sequence (Q13507 1-921): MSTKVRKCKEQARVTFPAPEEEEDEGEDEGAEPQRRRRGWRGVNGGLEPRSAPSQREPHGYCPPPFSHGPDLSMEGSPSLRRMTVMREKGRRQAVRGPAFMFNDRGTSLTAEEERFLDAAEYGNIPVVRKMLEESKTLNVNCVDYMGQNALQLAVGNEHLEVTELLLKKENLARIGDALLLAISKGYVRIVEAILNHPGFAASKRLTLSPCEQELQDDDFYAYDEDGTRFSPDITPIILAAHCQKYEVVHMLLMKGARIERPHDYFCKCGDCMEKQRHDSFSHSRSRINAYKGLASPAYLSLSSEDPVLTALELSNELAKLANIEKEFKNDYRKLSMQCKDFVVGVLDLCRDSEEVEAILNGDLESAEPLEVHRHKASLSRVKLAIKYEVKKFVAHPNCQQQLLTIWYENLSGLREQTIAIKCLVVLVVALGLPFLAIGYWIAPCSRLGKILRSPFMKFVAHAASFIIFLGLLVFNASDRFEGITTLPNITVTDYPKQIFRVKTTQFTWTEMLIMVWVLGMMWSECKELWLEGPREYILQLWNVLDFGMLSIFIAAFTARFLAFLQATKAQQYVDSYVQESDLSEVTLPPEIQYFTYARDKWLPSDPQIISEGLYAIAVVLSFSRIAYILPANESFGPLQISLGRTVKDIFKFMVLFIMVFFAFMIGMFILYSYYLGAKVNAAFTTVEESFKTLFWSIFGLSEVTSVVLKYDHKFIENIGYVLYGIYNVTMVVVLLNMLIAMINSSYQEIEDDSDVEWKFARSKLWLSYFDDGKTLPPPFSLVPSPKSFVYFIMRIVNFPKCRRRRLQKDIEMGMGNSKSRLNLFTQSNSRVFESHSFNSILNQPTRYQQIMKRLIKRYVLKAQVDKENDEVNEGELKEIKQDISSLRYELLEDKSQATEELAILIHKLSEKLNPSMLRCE
Excerpt: (§1) Error bars represent the standard error of the mean (SEM, n = 6 independent
(§2) Error bars represent the standard error of the
(§3) 110 mean (SEM, n = 5 independent cells).

[1] = test system: TRPC1 or TRPC5 mutations within the TRPC1/5 heteromer; experiment: Whole-cell patch-clamp, inhibition of TRPC1/5 heteromers carrying TRPC1 or TRPC5 mutations (e.g. TRPC1 F595A); type: cell-based; details: TRPC1 F595A/C5 vs WT TRPC1/5
Excerpt: The full-length hTRPC5 or truncated mTRPC5, and the full-length hTRPC1 constructs was respectively co-transfected in a plasmid ration 1:3 (w/w) into HEK293T cells (from the ATCC). As previously described, a mCherry was inserted into TRPC5 constructs and a GFP was inserted at the C terminus of TRPC1. Therefore, Cells with red and green fluorescence were selected for whole-cell patch recordings (HEKA EPC10 amplifier, […] software (https://www.heka.com/downloads/downloads_main.html#down_patchmaster)). A 1-s ramp protocol from −100 to +100 mV was applied at a frequency of 0.2 Hz. Signals were sampled at 50 kHz and filtered at 2.9 kHz. The pipette solution contained 130 mM CsCl, 1 mM MgCl2, 5.7 mM CaCl2, 10 mM EGTA, and 10 mM Hepes (calculated free Ca^2+, 200 nM), and the pH was titrated to 7.2 using CsOH[40]. The standard bath solution contained 140 mM NaCl, 5 mM KCl, 1 mM MgCl2, 2 mM CaCl2, 10 mM Hepes, and 10 mM D-glucose, and the pH was adjusted to 7.4 with NaOH (1 M). The recording chamber (150 μL) was perfused at a rate of ~2 mL/min. All recordings were performed at room temperature. In this experiment, TRPC5 homomers or TRPC1/5 heteromers were activated using the TRPC1/4/5 agonist Englerin A (EA).
as §1, §2, §3

mCPP-induced anxiety = experiment: Marble-burying test (MBT), mCPP-induced anxiety model; details: mCPP mice; single dose

CN(C)CCCCn1c(=O)c2c(nc(Oc3cccc(Cl)c3)n2Cc2ccc(Cl)cc2)n(C)c1=O [H08]
inhibitory activity toward TRPC5 homomers (in words) (hTRPC5): minimal effect | IC50 (TRPC1/4 heteromer): 6.68 nM and 6.7 nM | IC50 (TRPC3 homomer): > 10000 nM | inhibition of TRPC3 (TRPC3 homomer; 10 μM): no more than 40% | increase in IC50 on alanine substitution of F595 in TRPC1 [1]: ~ 100 fold | MBT number of marbles buried (mCPP-induced anxiety): reducing the number of marbles buried
